Experimental data reported in PMC11079024, “Identification of a family of species-selective complex I inhibitors as potential anthelmintics” (Nature Communications, 2024).

Experiments:
adult H. polygyrus = test: microbe, parasite or virus in culture; assay type: cell-based, Heligmosomoides polygyrus
Procedure: To investigate the impact of the eleven benzimidazole derivatives under anaerobic conditions, an anaerobic chamber with an integrated incubator (Coy Laboratory Products, USA) was used. The same procedure was followed as described for the aerobic drug screening in adult H. polygyrus, but the incubation took place within the anaerobic chamber (37 °C, 85% N2, 10% CO2, 5% H2). Benzimidazole derivatives were tested at a concentration of 10 µM. For scoring, the plates had to be removed from the anaerobic chamber. The whole experiment was performed two times i.e., two independent biological replicates.
The activities of eleven benzimidazole derivatives were tested against adult H. polygyrus viability in vitro under aerobic (+, white boxplots) and anaerobic (–, coloured boxplots) conditions (see Methods). After 24-hour chemical treatment, worm viability was manually scored by an examiner using a scale from 0 (dead) to 3 (motile); DMSO was used as a negative control in both aerobic and anaerobic conditions; levamisole was used as a positive control in anaerobic conditions. The percentage of affected worms (i.e., worms with a score equal to or lower than 1.5) in each biological replicate is shown; data are from two biological replicates. Within each boxplot, black horizontal lines denote group medians, boxes span from the 25th to the 75th percentile of each group’s distribution, and whiskers extend to the maximum and minimum values. […]

H. polygyrus = details: mouse, in vivo, 1.25 mg/kg; cited from earlier work

## c1ccc([C@H]2CN3CCSC3=N2)cc1 [levamisole, reference compound]
Adult H. polygyrus
  # of Worms Affected: 12
Adult H. polygyrus; Heligmosomoides polygyrus, 24 h, read-out: Percent Worms Affected
  killing at 10 µM: 100%
H. polygyrus
  reduction in H. polygyrus worm burden: 62%
